In EP0089926A2, “Pharmaceutical preparations of tetracycles containing nitrogen, and compounds of this type” (CIBA-GEIGY AG, priority 1982, dated 1983):

System: Mäuse
Assay: Step-down platform passive avoidance test, direct measurement of improvement of memory performance
Type: in vivo
Settings: male mice, 1 mg/kg i.p. within 10 seconds after foot shock, time on platform 24 hours later versus solvent controls
From the text: Zur unmittelbaren […]: • Die Testvorrichtung besteht aus […] normal beleuchteten Box (50 […]äbe (6 mm Durchmesser) in einem Abstand von jeweils 13 mm angeordnet sind. In […] Gitterrostes ist eine hölzerne Plattform (10 mm Höhe, 67 mm Durchmesser) angebracht, welche von […] hoch, 68 mm […]. Zur Durchführung des Trainings werden Gruppen von jeweils 30 männlichen Mäusen (20 - 25 g) verwendet, indem jeweils ein Tier auf die von […] die […] und die Zeitdauer gemessen wird, welche das Tier zum Hinabsteigen und Berühren des Gitterrostes mit allen 4 Pfoten benö[…] von 10 Sekunden nach Verabreichung des Fussschocks werden die Testsubstanzen in Dosen von 0,1 mg/kg, 1 mg/kg und 10 mg/kg (für jede Dosis werden 30 Mäuse verwendet) je nach Löslichkeit als Lösung in physiologischer NaCl-Lösung oder einer 0,5%-igen Lösung von Methylcellulose in Wasser intraperitoneal verabreicht.

Compound | Verbesserung der Gedächtnisleistung
CCC1(CCC(=O)OC)CCN2CCc3c([nH]c4ccccc34)C21 (racemic) [cis-1-Aethyl-2,3,5,6,11,11b-hexahydro-1H-indolizino[8,7-b]indol-1-propionsäuremethylester] | eine Verbesserung der Gedächtnisleistung
CCC1(CC(O)C(=O)OC)CCN2CCc3c([nH]c4ccccc34)C21 (racemic) [erythro-cis-a-Hydroxy-1-äthyl-2,3,5,6,11,11b-hexahydro-1H-indolizino[8,7-b]indol-1-propionsäuremethylester] | eine Verbesserung der Gedächtnisleistung
